“Also recorded” adds a separate entry of the source. One block for each molecule: values may come before it. Ends that are not written are not given here.
Legend:
[1] = tested on: Glutaminyl cyclase present in the homogenate of porcine pituitary; assay: Formation of [pGlu^3]Aβ3-11a by QC in porcine pituitary homogenate, MALDI-TOF; type: biochemical; conditions: 2 mM 1,10-phenanthroline
Protocol: (§1) Matrix-assisted laser desorption/ionization mass spectrometry was carried out using the Hewlett-Packard G2025 LD-TOF System with a linear time of flight analyzer. […] Samples (5 μl) were mixed with equal volumes of the matrix solution. For matrix solution we used DHAP/DAHC, prepared by solving 30 mg 2′,6′-dihydroxyacetophenone (Aldrich) and 44 mg diammonium hydrogen citrate (Fluka) in 1 ml acetonitrile/0.1% TFA in water (1/1, v/v). A small volume (=1 μl) of the matrix-analyte-mixture was transferred to a probe tip and immediately evaporated in a vacuum chamber (Hewlett-Packard G2024A sample prep accessory) to ensure rapid and homogeneous sample crystallization.
In case of Aβ3-21a, the assays contained 1% DMSO. At different times, samples were removed from the assay tube, peptides extracted using ZipTips (Millipore) according to the manufacturer's recommendations, mixed with matrix solution (1:1 v/v) and subsequently the mass spectra recorded.

QC [2] = target: T1, QC (Homo sapiens, UniProt Q16769); assay: Inhibition and inactivation of human QC by chelators; type: biochemical; parameters: The cDNA of the mature QC starting with codon 38 was fused in frame with the plasmid encoded 6×histidine tag; 6xHis; made in house; host or cells: Pichia pastoris X33 (pPICZαB); also E. coli M15 (pQE-31)
mammalian QC = conditions: Busby et al. 1987; cited from earlier work
DP IV and QC = assay: Consecutive catalysis of DP IV and QC, crude porcine pituitary homogenate with added DPIV, MALDI-TOF; type: biochemical
Protocol: as §1

QC [3] = target: T1, QC; assay: Reactivation of inactivated human QC with metal ions; type: biochemical; parameters: The cDNA of the mature QC starting with codon 38 was fused in frame with the plasmid encoded 6×histidine tag; 6xHis; made in house; host or cells: Pichia pastoris X33 (pPICZαB); also E. coli M15 (pQE-31); conditions: 0.5 mM metal ion in presence of 0.5 mM EDTA
Protocol: Subsequently, the enzyme was subjected to dialysis against 50 mM Bis-Tris, pH 6.8, containing 1.0 mM EDTA. Reactivation of the enzymes was achieved by incubation of the inactivated enzyme sample with metal ions at a concentration of 0.5 mM, in presence of 0.5 mM EDTA in order to avoid an unspecific reactivation by traces of metal ions present in buffer solutions. Controls are given by enzyme samples that were not inactivated, but also dialyzed against EDTA solution as the inactivated enzyme (+EDTA) and enzyme samples that were dialyzed against buffer solutions without added EDTA (−EDTA).

[4] = Solubility of substrates in aqueous solution

T1 sequence (Q16769 29-361): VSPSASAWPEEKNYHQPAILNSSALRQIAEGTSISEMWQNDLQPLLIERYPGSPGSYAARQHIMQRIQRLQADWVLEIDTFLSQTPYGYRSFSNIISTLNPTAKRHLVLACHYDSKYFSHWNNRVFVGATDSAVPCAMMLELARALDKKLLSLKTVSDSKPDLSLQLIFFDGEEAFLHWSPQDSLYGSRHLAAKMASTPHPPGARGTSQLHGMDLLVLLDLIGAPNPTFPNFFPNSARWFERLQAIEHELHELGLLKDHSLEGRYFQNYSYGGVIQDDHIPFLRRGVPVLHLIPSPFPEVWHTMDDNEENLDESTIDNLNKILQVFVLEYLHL

inhibition of formation of [pGlu^3]Aβ3-11a from [Gln^3]Aβ3-11a [1]: inhibited; also recorded: inhibition
inactivation of human QC after extensive dialysis (QC [2]; dialysis against 5 mM): almost completely inactivated
Molecule: c1cnc2c(c1)ccc1cccnc12 [1,10-phenanthroline]
inhibition of human QC catalyzed substrate cyclization (QC [2]; competitive and time-dependent for the chelators): inhibited; also recorded: reduced enzymatic activity
inhibition of a mammalian QC (mammalian QC): Inhibition
[pGlu^3]Aβ3-11a formation from [Gln^3]Aβ1-11a in presence of catalytically active DP IV and QC (DP IV and QC): not formed; also recorded: inhibition

restoration of QC activity after inactivation (QC [3]): Near-total restoration
Molecule: O=S(=O)([O-])[O-].[Zn+2] [ZnSO4]

solubility in aqueous solution [4]: better
Molecule: QFRHDSGYE-NH2 [[Gln^3]Aβ3-11a]

Reference: patent US7381537B2, “Use of inhibitors of glutaminyl cyclases for treatment and prevention of disease” (Probiodrug AG, priority 2003, dated 2008)
